# Laboratory results from patent US20030181527A1, “Novel formulations of alpha-2,4-disulfophenyl-n-tert-butylnitrone” (priority 2000, published 2003).
# Key:
# Format in all cases: physicochemical
# [1] = Stability of 100 mg/ml aqueous solution with added factors (chelating agent, antioxidant, oxygen removal, pH)
# Procedure: The effects of several added factors were investigated in experiments designed using a multivariate technique. An aqueous solution of α-(2,4-disulfophenyl)-N-tert-butylnitrone disodium salt (100 mg/ml) containing less than 0.3% 2,4-disulphobenzaldehyde disodium salt (II) was placed in sealed 10 ml glass vials with a fill volume of 10 ml. The concentrations of the degradation products and particularly of 2,4-disulphobenzaldehyde disodium salt (II) were measured by a chromatographic method after accelerated storage conditions at +40° C. and 75% relative humidity for two months.
# Values are mean±standard deviation. n indicates the number of independent experiments. A t-test was performed to evaluate the significance of the different factors.
# [2] = Effect of chelator resin Chelex-100 on stability of concentrated aqueous solution; conditions: 100 mg/ml, 5.3 mM phosphate, pH 8.0
# Procedure: A concentrated aqueous solution of α-(2,4-disulfophenyl)-N-tert-butylnitrone disodium salt (100 mg/ml) and disodium hydrogen phosphate (5.3 mM) at pH 8.0 was passed overnight through a column of the chelator resin, Chelex-100®. The resulting solution was placed in portions (8 ml) into 10 ml glass vials which were then sealed. The starting level of the aldehyde (II) was 0.20%. After two months at +40° C. and 75% relative humidity the concentration of the aldehyde (II) had increased to 2.3%. In a control experiment where the treatment with the resin was omitted, the level of the aldehyde (II) increased to 3.0%.
# [3] = Stability with air or nitrogen filled headspaces (Table 5); conditions: 400 mg/ml
# Procedure: A 400 mg/ml concentrate of α-(2,4-disulfophenyl)-N-tert-butylnitrone disodium salt was prepared by adding α-(2,4-disulfophenyl)-N-tert-butylnitrone disodium salt (1500 g) to water for injection (2200 ml) containing dissolved disodium hydrogen phosphate dihydrate (3.51 g). The solution was then adjusted to pH 8.5 by the addition of 2M sodium hydroxide solution and then water for injection was added to give a final volume of 3750 ml. After preparation, the solution was purged with nitrogen for 90 minutes and then placed in 10 ml glass vials with a fill volume of 7.7 ml. Before stoppering the vials, the headspace was purged with nitrogen. […] The vials were stored either at +5° C. at ambient humidity or at +25° C. and 60% relative humidity.
# A second batch of 400 mg/ml concentrate of α-(2,4-disulfophenyl)-N-tert-butylnitrone disodium salt buffered with 50 mM phosphate buffer was treated identically except that the headspace was filled with air not nitrogen and the fill volume was 10.5 ml.
# [4] = Stability versus concentration, vial size and headspace gas at +40° C. (Table 6)
# Procedure: For the 10 ml vial size, the fill volume was 10.7 ml; and for the 20 ml vial size, the fill volume was 20.7 ml.
smiles,measurement,setting,value
"CC(C)(C)[N+]([O-])=Cc1ccc(S(=O)(=O)[O-])cc1S(=O)(=O)[O-].[Na+].[Na+] [α-(2,4-disulfophenyl)-N-tert-butylnitrone disodium salt]","Initial content of 2,4-disulphobenzaldehyde disodium salt (II)","[1]; 100 mg/ml aqueous solution, before storage",less than 0.3%
same,Final Amount of Aldehyde (II),"[1]; 100 mg/ml, added EDTA, pH 7.0 to 8.8, 2 months +40° C./75% RH",2.27 ± 0.12 area %
same,Final Amount of Aldehyde (II),"[1]; 100 mg/ml, added ascorbate, pH 7.0 to 7.3, 2 months +40° C./75% RH",1.32 ± 0.11 (p < 0.001) area %
same,Final Amount of Aldehyde (II),"[1]; 100 mg/ml, added factor none, pH 7.0 to 8.2, 2 months +40° C./75% RH",2.20 ± 0.11 area %
same,Final Amount of Aldehyde (II),"[1]; 100 mg/ml, nitrogen purge, pH 7.0 to 8.6, 2 months +40° C./75% RH",1.34 ± 0.18 (p < 0.001) area %
same,Effect of pH on the degree of decomposition,"[1]; pH 7 to 9, 100 mg/ml, 2 months +40° C./75% RH",no significant effect
same,Concentration of the aldehyde (II),"[2]; Chelex-100 treated, 2 months +40° C./75% RH",2.3%
same,Starting level of the aldehyde (II),"[2]; Chelex-100 treated, start",0.20%
same,Level of the aldehyde (II),"[2]; resin treatment omitted, 2 months +40° C./75% RH",3.0%
same,Amount of Aldehyde (II),"[3]; 50 mM phosphate, air-filled headspace, fill 10.5 ml, +5° C., 0 months",0.3 area %
same,Amount of Aldehyde (II),"[3]; 50 mM phosphate, air-filled headspace, fill 10.5 ml, +5° C., 3 months",0.3 area %
same,Amount of Aldehyde (II),"[3]; 50 mM phosphate, air-filled headspace, fill 10.5 ml, +5° C., 6 months",0.5 area %
same,Amount of Aldehyde (II),"[3]; 50 mM phosphate, air-filled headspace, fill 10.5 ml, +5° C., 12 months",0.4 area %
same,Amount of Aldehyde (II),"[3]; 50 mM phosphate, air-filled headspace, fill 10.5 ml, +25° C./60% RH, 0 months",0.3 area %
same,Amount of Aldehyde (II),"[3]; 50 mM phosphate, air-filled headspace, fill 10.5 ml, +25° C./60% RH, 3 months",0.7 area %
same,Amount of Aldehyde (II),"[3]; 50 mM phosphate, air-filled headspace, fill 10.5 ml, +25° C./60% RH, 6 months",1.0 area %
same,Amount of Aldehyde (II),"[3]; 50 mM phosphate, air-filled headspace, fill 10.5 ml, +25° C./60% RH, 12 months",0.7 area %
same,Amount of Aldehyde (II),"[3]; pH 8.5, nitrogen-filled headspace, fill 7.7 ml, +5° C., 0 months",0.2 area %
same,Amount of Aldehyde (II),"[3]; pH 8.5, nitrogen-filled headspace, fill 7.7 ml, +5° C., 3 months",0.2 area %
same,Amount of Aldehyde (II),"[3]; pH 8.5, nitrogen-filled headspace, fill 7.7 ml, +5° C., 6 months",0.2 area %
same,Amount of Aldehyde (II),"[3]; pH 8.5, nitrogen-filled headspace, fill 7.7 ml, +5° C., 12 months",0.3 area %
same,Amount of Aldehyde (II),"[3]; pH 8.5, nitrogen-filled headspace, fill 7.7 ml, +25° C./60% RH, 0 months",0.2 area %
same,Amount of Aldehyde (II),"[3]; pH 8.5, nitrogen-filled headspace, fill 7.7 ml, +25° C./60% RH, 3 months",0.4 area %
same,Amount of Aldehyde (II),"[3]; pH 8.5, nitrogen-filled headspace, fill 7.7 ml, +25° C./60% RH, 6 months",0.3 area %
same,Amount of Aldehyde (II),"[3]; pH 8.5, nitrogen-filled headspace, fill 7.7 ml, +25° C./60% RH, 12 months",0.5 area %
same,Amount of Aldehyde (II),"[4]; 50 mg/ml, 10 ml vial, N2 in headspace, 2 months at +40° C.",1.4 w/w %
same,Amount of Aldehyde (II),"[4]; 50 mg/ml, 10 ml vial, N2 in headspace, 3 months at +40° C.",1.5 w/w %
same,Amount of Aldehyde (II),"[4]; 50 mg/ml, 10 ml vial, N2 in headspace, 6 months at +40° C.",1.7 w/w %
same,Amount of Aldehyde (II),"[4]; 50 mg/ml, 10 ml vial, N2 in headspace, initial",0.2 w/w %
same,Amount of Aldehyde (II),"[4]; 50 mg/ml, 10 ml vial, air in headspace, 2 months at +40° C.",2.8 w/w %
same,Amount of Aldehyde (II),"[4]; 50 mg/ml, 10 ml vial, air in headspace, 3 months at +40° C.",3.3 w/w %
same,Amount of Aldehyde (II),"[4]; 50 mg/ml, 10 ml vial, air in headspace, 6 months at +40° C.",3.5 w/w %
same,Amount of Aldehyde (II),"[4]; 50 mg/ml, 10 ml vial, air in headspace, initial",0.2 w/w %
same,Amount of Aldehyde (II),"[4]; 100 mg/ml, 10 ml vial, air in headspace, 2 months at +40° C.",1.8 w/w %
same,Amount of Aldehyde (II),"[4]; 100 mg/ml, 10 ml vial, air in headspace, initial",0.2 w/w %
same,Amount of Aldehyde (II),"[4]; 400 mg/ml, 10 ml vial, N2 in headspace, 2 months at +40° C.",0.5 w/w %
same,Amount of Aldehyde (II),"[4]; 400 mg/ml, 10 ml vial, N2 in headspace, 3 months at +40° C.",0.6 w/w %
same,Amount of Aldehyde (II),"[4]; 400 mg/ml, 10 ml vial, N2 in headspace, initial",0.3 w/w %
same,Amount of Aldehyde (II),"[4]; 400 mg/ml, 10 ml vial, air in headspace, 2 months at +40° C.",0.8 w/w %
same,Amount of Aldehyde (II),"[4]; 400 mg/ml, 10 ml vial, air in headspace, 3 months at +40° C.",0.9 w/w %
same,Amount of Aldehyde (II),"[4]; 400 mg/ml, 10 ml vial, air in headspace, initial",0.3 w/w %
same,Amount of Aldehyde (II),"[4]; 400 mg/ml, 20 ml vial, N2 in headspace, 2 months at +40° C.",0.5 w/w %
same,Amount of Aldehyde (II),"[4]; 400 mg/ml, 20 ml vial, N2 in headspace, 3 months at +40° C.",0.5 w/w %
